Results on one substance are retold here after US20100204107A1, “USE OF URODILATIN AS A THERAPEUTIC AGENT” (priority 2007, published 2010).

This test relates to Human Peripheral Blood Mononuclear Cells (PBMC). Kind of test: T cell proliferation assay (PHA, 3H-thymidine). Particulars: 10 micrograms per ml, 3 days plus 12 hours 3H-thymidine. The format is cell-based.

As to Secretin, the “% of PHA induced control” value turned out to be 100.5%.
